Results: patent US4486586A, “Cephalosporin derivatives” (Bristol-Myers Company, priority 1983, dated 1984)
Converted amounts (≈) assume the structure as drawn.

Tests used:
[1] = system: Penicillinsensitive S. aureus; assay: MIC, two-fold serial agar dilution in Mueller-Hinton agar, group (G+)-Ia; type: cell-based; details: Staphylococcus aureus, penicillin-sensitive S. aureus, 5 strains, read-out: Geometric Mean of MIC, (G+)-Ia
Procedure: (§1) In the primary evaluation of the compounds of this invention, the Minimum Inhibitory Concentrations (MIC's) of the compounds were determined by the two-fold serial agar dilution method in Mueller-Hinton agar against 32 strains of test organisms in six groups.

[2] = system: Penicillinresistant S. aureus; assay: MIC, two-fold serial agar dilution in Mueller-Hinton agar, group (G+)-Ib; type: cell-based; details: Staphylococcus aureus, penicillin-resistant S. aureus, 5 strains, read-out: Geometric Mean of MIC, (G+)-Ib
Procedure: as §1
(G+)Ib: Penicillinresistant S. aureus (5

[3] = system: Cephalothinsensitive E. coli, Kl. pneumoniae and Pr. mirabilis; assay: MIC, two-fold serial agar dilution in Mueller-Hinton agar, group (G-)-Ia; type: cell-based; details: cephalothin-sensitive E. coli, 5 strains, read-out: Geometric Mean of MIC, (G-)-Ia
Procedure: as §1
(G-)Ia: Cephalothinsensitive E. coli (2 strains), Kl. pneumoniae (1
strain) and Pr. mirabilis (2 strains)

[4] = system: Cephalothinresistant E. coli and Kl. pneumoniae; assay: MIC, two-fold serial agar dilution in Mueller-Hinton agar, group (G-)-Ib; type: cell-based, E. coli (3 strains) and Kl. pneumoniae (3 strains); details: read-out: Geometric Mean of MIC, (G-)-Ib
Procedure: as §1
(G-)Ib: Cephalothinresistant E. coli (3 strains) and Kl. pneumoniae (3

[5] = system: M. morganii, Ent. cloacae and Ser. marcescens; assay: MIC, two-fold serial agar dilution in Mueller-Hinton agar, group (G-)-II; type: cell-based; details: 5 strains, read-out: Geometric Mean of MIC, (G-)-II
Procedure: as §1
(G-)II: M. morganii (1 strain), Ent. cloacae (2 strains) andSer.

Ps. aeruginosa = assay: MIC, two-fold serial agar dilution in Mueller-Hinton agar, group (G-)-III; type: cell-based; details: Pseudomonas aeruginosa, 7 strains, read-out: Geometric Mean of MIC, (G-)-III
Procedure: as §1
(G-)III: Ps. aeruginosa (7 strains)

SMILES	MIC [1]	MIC [2]	MIC [3]	MIC [4]	MIC [5]	MIC (Ps. aeruginosa)
CO/N=C(\C(=O)NC1C(=O)N2C(C(=O)[O-])=C(/C=C/C[N+]3(C)CCCC3)CS[C@H]12)c1csc(N)n1 (stereo partly shown) [Compound I-1A, 7-[(Z)-2-(2-Aminothiazol-4-yl)-2-methoxyiminoacetamido]-3-[(E)-3-(1-methylpyrrolidinio)-1-propen-1-yl]-3-cephem-4-carboxylate]	0.22 µg/mL (≈ 0.434 µM)	0.59 µg/mL (≈ 1.16 µM)	0.021 µg/mL (≈ 0.0415 µM)	0.11 µg/mL (≈ 0.217 µM)	0.13 µg/mL (≈ 0.257 µM)	5.1 µg/mL (≈ 10.1 µM)
CO/N=C(\C(=O)NC1C(=O)N2C(C(=O)[O-])=C(/C=C/C[n+]3ccccc3)CS[C@H]12)c1csc(N)n1 (stereo partly shown) [Compound I-1B, 7-[(Z)-2-(2-Aminothiazol-4-yl)-2-methoxyiminoacetamido]-3-[(E)-3-pyridinio-1-propen-1-yl]-3-cephem-4-carboxylate]	0.2 µg/mL (≈ 0.4 µM)	0.52 µg/mL (≈ 1.04 µM)	0.012 µg/mL (≈ 0.024 µM)	0.05 µg/mL (≈ 0.0999 µM)	0.1 µg/mL (≈ 0.2 µM)	5.7 µg/mL (≈ 11.4 µM)
CO/N=C(\C(=O)NC1C(=O)N2C(C(=O)[O-])=C(/C=C/C[N+](C)(C)C)CS[C@H]12)c1csc(N)n1 (stereo partly shown) [Compound I-1D, 7-[(Z)-2-(2-Aminothiazol-4-yl)-2-methoxyiminoacetamido]-3-[(E)-3-trimethylammonio-1-propen-1-yl]-3-cephem-4-carboxylate]	0.17 µg/mL (≈ 0.354 µM)	0.59 µg/mL (≈ 1.23 µM)	0.0093 µg/mL (≈ 0.0194 µM)	0.074 µg/mL (≈ 0.154 µM)	0.1 µg/mL (≈ 0.208 µM)	3.1 µg/mL (≈ 6.45 µM)
CO/N=C(\C(=O)NC1C(=O)N2C(C(=O)[O-])=C(/C=C/C[n+]3cccc(N)c3)CS[C@H]12)c1csc(N)n1 (stereo partly shown) [Compound I-1E, 7-[(Z)-2-(2-Aminothiazol-4-yl)-2-methoxyiminoacetamido]-3-[(E)-3-(3-aminopyridinio)-1-propen-1-yl]-3-cephem-4-carboxylate]	0.1 µg/mL (≈ 0.194 µM)	0.3 µg/mL (≈ 0.582 µM)	< 0.0053 µg/mL	0.05 µg/mL (≈ 0.097 µM)	0.043 µg/mL (≈ 0.0834 µM)	5.7 µg/mL (≈ 11.1 µM)
CO/N=C(\C(=O)NC1C(=O)N2C(C(=O)[O-])=C(/C=C/C[N+]3(C)CC=CC3)CS[C@H]12)c1csc(N)n1 (stereo partly shown) [Compound I-1F, 7-[(Z)-2-(2-Aminothiazol-4-yl)-2-methoxyiminoacetamido]-3-[(E)-3-(1-methyl-3-pyrrolinio)-1-propen-1-yl]-3-cephem-4-carboxylate]	0.15 µg/mL (≈ 0.297 µM)	0.39 µg/mL (≈ 0.773 µM)	0.014 µg/mL (≈ 0.0277 µM)	0.074 µg/mL (≈ 0.147 µM)	0.1 µg/mL (≈ 0.198 µM)	3.1 µg/mL (≈ 6.14 µM)
CO/N=C(\C(=O)NC1C(=O)N2C(C(=O)[O-])=C(/C=C/C[n+]3ccsc3SC)CS[C@H]12)c1csc(N)n1 (stereo partly shown) [Compound I-1G, 7-[(Z)-2-(2-Aminothiazol-4yl)-2-methoxyiminoacetamido]-3-[(E)-3-(2-methylthio-3-thiazolio)-1-propen-1-yl]-3-cephem-4-carboxylate]	0.15 µg/mL (≈ 0.271 µM)	0.39 µg/mL (≈ 0.706 µM)	0.014 µg/mL (≈ 0.0253 µM)	0.074 µg/mL (≈ 0.134 µM)	0.085 µg/mL (≈ 0.154 µM)	7.6 µg/mL (≈ 13.8 µM)
CO/N=C(\C(=O)NC1C(=O)N2C(C(=O)[O-])=C(/C=C/C[n+]3ccsc3C)CS[C@H]12)c1csc(N)n1 (stereo partly shown) [Compound I-1H, 7-[(Z)-2-(2-Aminothiazol-4-yl)-2-methoxyiminoacetamido]-3-[(E)-3-(2-methyl-3-thiazolio)-1-propen-1-yl]-3-cephem-4-carboxylate]	0.1 µg/mL (≈ 0.192 µM)	0.3 µg/mL (≈ 0.576 µM)	0.0093 µg/mL (≈ 0.0179 µM)	0.05 µg/mL (≈ 0.096 µM)	0.074 µg/mL (≈ 0.142 µM)	5.7 µg/mL (≈ 10.9 µM)
CO/N=C(\C(=O)NC1C(=O)N2C(C(=O)[O-])=C(/C=C/C[n+]3ccc(N)cc3)CS[C@H]12)c1csc(N)n1 (stereo partly shown) [Compound I-1I, 7-[(Z)-2-(2-Aminothiazol-4-yl)-2-methoxyiminoacetamido]-3-[(E)-3-(4-amino-1-pyridinio)-1-propen-1-yl]-3-cephem-4-carboxylate]	0.11 µg/mL (≈ 0.213 µM)	0.34 µg/mL (≈ 0.659 µM)	< 0.016 µg/mL	0.1 µg/mL (≈ 0.194 µM)	0.15 µg/mL (≈ 0.291 µM)	> 25 µg/mL
CO/N=C(\C(=O)NC1C(=O)N2C(C(=O)[O-])=C(/C=C/C[n+]3ccc(C(N)=O)cc3)CS[C@H]12)c1csc(N)n1 (stereo partly shown) [Compound I-1J, 7-[(Z)-2-(2-Aminothiazol-4-yl)-2-methoxyiminoacetamido]-3-[(E)-3-(4-carbamoyl-1-pyridinio)-1-propen-1-yl]-3-cephem-4-carboxylate]	0.26 µg/mL (≈ 0.478 µM)	0.61 µg/mL (≈ 1.12 µM)	0.016 µg/mL (≈ 0.0294 µM)	0.11 µg/mL (≈ 0.202 µM)	0.13 µg/mL (≈ 0.239 µM)	5.7 µg/mL (≈ 10.5 µM)
CC(C)(O/N=C(\C(=O)NC1C(=O)N2C(C(=O)[O-])=C(/C=C/C[N+]3(C)CCCC3)CS[C@H]12)c1csc(N)n1)C(=O)O (stereo partly shown) [Compound I-4A, 7-[(Z)-2-(2-Aminothiazol-4-yl)-2-(2-carboxy-2-propoxyimino)acetamido]-3-[(E)-3-(1-methylpyrrolidinio)-1-propen-1-yl]-3-cephem-4-carboxylate]	2.3 µg/mL (≈ 3.97 µM)	4.1 µg/mL (≈ 7.09 µM)	0.036 µg/mL (≈ 0.0622 µM)	0.2 µg/mL (≈ 0.346 µM)	0.17 µg/mL (≈ 0.294 µM)	2.3 µg/mL (≈ 3.97 µM)
CC(C)(O/N=C(\C(=O)NC1C(=O)N2C(C(=O)[O-])=C(/C=C/C[n+]3ccccc3)CS[C@H]12)c1csc(N)n1)C(=O)O (stereo partly shown) [Compound I-4B, 7-[(Z)-2-(2-Aminothiazol-4-yl)-2-(2-carboxy-2-propoxyimino)acetamido]-3-[(E)-3-pyridinio-1-propen-1-yl]-3-cephem-4-carboxylate]	6 µg/mL (≈ 10.5 µM)	15 µg/mL (≈ 26.2 µM)	0.046 µg/mL (≈ 0.0803 µM)	0.37 µg/mL (≈ 0.646 µM)	0.41 µg/mL (≈ 0.716 µM)	5 µg/mL (≈ 8.73 µM)
CSc1scc[n+]1C/C=C/C1=C(C(=O)[O-])N2C(=O)C(NC(=O)/C(=N\OC(C)(C)C(=O)O)c3csc(N)n3)[C@H]2SC1 (stereo partly shown) [Compound I-4G, 7-[(Z)-2-(2-Aminothiazol-4-yl)-2-(2-carboxy-2-propoxyimino)acetamido]-3-[(E)-3-(2-methylthio-3-thiazolio)-1-propen-1-yl]-3-cephem-4-carboxylate]	1.8 µg/mL (≈ 2.88 µM)	5.4 µg/mL (≈ 8.64 µM)	0.021 µg/mL (≈ 0.0336 µM)	0.22 µg/mL (≈ 0.352 µM)	0.2 µg/mL (≈ 0.32 µM)	3.5 µg/mL (≈ 5.6 µM)
C[N+]1(C/C=C/C2=C(C(=O)[O-])N3C(=O)C(NC(=O)/C(=N\OC4(C(=O)O)CCC4)c4csc(N)n4)C3SC2)CCCC1 (stereo not shown) [Compound I-5A]	1.8 µg/mL (≈ 3.05 µM)	4.7 µg/mL (≈ 7.96 µM)	0.038 µg/mL (≈ 0.0643 µM)	0.23 µg/mL (≈ 0.389 µM)	0.26 µg/mL (≈ 0.44 µM)	2.6 µg/mL (≈ 4.4 µM)
Nc1nc(/C(=N/OC2(C(=O)O)CCC2)C(=O)NC2C(=O)N3C(C(=O)[O-])=C(/C=C/C[n+]4ccccc4)CS[C@H]23)cs1 (stereo partly shown) [Compound I-5B, 7-[(Z)-2-(2-Aminothiazol-4-yl)-2-(1-carboxycyclobut-1-oxyimino)acetamido]-3-[(E)-3-pyridinio-1-propen-1-yl]-3-cephem-4-carboxylate]	1.6 µg/mL (≈ 2.74 µM)	4.7 µg/mL (≈ 8.04 µM)	0.019 µg/mL (≈ 0.0325 µM)	0.23 µg/mL (≈ 0.393 µM)	0.17 µg/mL (≈ 0.291 µM)	2 µg/mL (≈ 3.42 µM)
Nc1ccc[n+](C/C=C/C2=C(C(=O)[O-])N3C(=O)C(NC(=O)/C(=N\OC4(C(=O)O)CCC4)c4csc(N)n4)[C@H]3SC2)c1 (stereo partly shown) [Compound I-5E, 7-[(Z)-2-(2-Aminothiazol-4-yl)-2-(1-carboxycyclobut-1-oxyimino)acetamido]-3-[(E)-3-(3-amino-1-pyridinio)-1-propen-1-yl]-3-cephem-4-carboxylate]	1.2 µg/mL (≈ 2 µM)	3.1 µg/mL (≈ 5.17 µM)	0.016 µg/mL (≈ 0.0267 µM)	–	0.15 µg/mL (≈ 0.25 µM)	1.9 µg/mL (≈ 3.17 µM)
CSc1scc[n+]1C/C=C/C1=C(C(=O)[O-])N2C(=O)C(NC(=O)/C(=N\OC3(C(=O)O)CCC3)c3csc(N)n3)[C@H]2SC1 (stereo partly shown) [Compound I-5G, 7-[(Z)-2-(2-Aminothiazol-4-yl)-2-(1-carboxycyclobut-1-oxyimino)acetamido]-3-[(E)-3-(2-methylthio-3-thiazolio)-1-propen-1-yl]-3-cephem-4-carboxylate]	0.84 µg/mL (≈ 1.32 µM)	2.8 µg/mL (≈ 4.4 µM)	0.014 µg/mL (≈ 0.022 µM)	–	0.13 µg/mL (≈ 0.204 µM)	1.9 µg/mL (≈ 2.98 µM)
